# Reference: paper PMC7496097, “Establishment of a system for finding inhibitors of ε RNA binding with the HBV polymerase” (Genes to Cells, 2020)
# B1: epsilon dBdL RNA (central bulge and apical loop deleted) (structured_RNA)
# RNA: UCUCAUGUUCAUGUCCUAGCCUCCAAUUGGGUGGCUUUGGGGCAUGGACAUUGAC
# B2: epsilon WT RNA (structured_RNA)
# RNA: UCUCAUGUUCAUGUCCUACUGUUCAAGCCUCCAAGCUGUGCCUUGGGUGGCUUUGGGGCAUGGACAUUGA
# Tests used:
# [1] = biological target: T1, Strep‐TP‐spacer‐RT‐His8 (HBVpol 1‐690aa; TP‐RT) (Hepatitis B virus ar/Japan/S-207/1988, UniProt Q9YZR5); experiment: plate assay, inhibition of DIG-labelled epsilon RNA binding to immobilised protein, luminescence; settings: 5 pmol DIG-epsilon RNA WT, pH 7.5, room temperature, 3 hr; binding considered nonspecific by the authors; unreliable
# T1 construct: gene P; residues 1-690 of HBV polymerase (TP, spacer, RT); no polymerase activity detected
# T1 sequence (Q9YZR5 1-690): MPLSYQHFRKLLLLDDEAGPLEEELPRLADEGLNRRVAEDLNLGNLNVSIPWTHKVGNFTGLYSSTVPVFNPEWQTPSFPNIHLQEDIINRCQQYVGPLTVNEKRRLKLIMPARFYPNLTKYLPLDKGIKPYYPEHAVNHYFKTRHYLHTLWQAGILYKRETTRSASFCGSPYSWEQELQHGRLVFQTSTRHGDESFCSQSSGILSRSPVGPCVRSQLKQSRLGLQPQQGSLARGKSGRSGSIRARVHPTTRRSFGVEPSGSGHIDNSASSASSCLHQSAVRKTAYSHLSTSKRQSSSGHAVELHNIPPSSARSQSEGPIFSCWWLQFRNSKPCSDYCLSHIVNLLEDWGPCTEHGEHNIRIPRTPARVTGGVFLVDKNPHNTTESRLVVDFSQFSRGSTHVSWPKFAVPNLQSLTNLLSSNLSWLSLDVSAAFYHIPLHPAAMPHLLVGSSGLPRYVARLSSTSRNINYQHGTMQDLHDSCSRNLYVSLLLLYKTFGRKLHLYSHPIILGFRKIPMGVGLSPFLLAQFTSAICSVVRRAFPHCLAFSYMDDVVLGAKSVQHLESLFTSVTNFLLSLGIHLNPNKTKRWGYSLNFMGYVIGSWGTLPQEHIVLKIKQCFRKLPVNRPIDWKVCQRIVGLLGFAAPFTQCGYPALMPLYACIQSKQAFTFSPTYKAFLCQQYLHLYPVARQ
# [2] = biological target: T1, Strep‐TP‐spacer‐RT‐His8 (HBVpol 1‐690aa; TP‐RT); experiment: surface plasmon resonance; settings: binding considered nonspecific by the authors (also binds GFP control); unreliable
# [3] = biological target: T2, Strep‐TP‐spacer‐RT‐His8 (HBVpol 1‐690aa; TP‐RT) (Hepatitis B virus ar/Japan/S-207/1988, UniProt Q9YZR5); experiment: plate assay, inhibition of DIG-labelled epsilon RNA binding to immobilised protein, luminescence; settings: 5 pmol DIG-epsilon RNA WT, pH 7.5, room temperature, 3 hr
# T2 construct: gene P; residues 1-690 of HBV polymerase (TP, spacer, RT); no polymerase activity detected
# [4] = biological target: T2, Strep‐TP‐spacer‐RT‐His8 (HBVpol 1‐690aa; TP‐RT); experiment: surface plasmon resonance; format: binding
# [5] = biological target: T3, Strep-TP-spacer-RT-His8 (HBV polymerase TP-spacer-RT), refolded (Hepatitis B virus, UniProt Q9YZR5 1-690); experiment: streptavidin plate binding assay (anti-DIG-HRP luminescence); refolded protein; 5 pmol RNA; 50 mM Tris-HCl pH 7.5, 150 mM NaCl, 1 mM EDTA, 0.05% NP-40, 1 mg/ml BSA, 1 ug/ml poly(I/C), 0.1% protease inhibitor cocktail, 2 mM DTT; room temperature, 3 h (competition 30 min); settings: protein: recombinant, tags: N-terminal Strep, self-annealed
# T3 sequence: T1 sequence (Q9YZR5 1-690)
# [6] = biological target: T4, His6-SUMO-TP (Hepatitis B virus, UniProt Q9YZR5 1-177); experiment: nickel plate binding assay (anti-DIG-HRP luminescence); 5 pmol RNA; no specific binding; 50 mM Tris-HCl pH 7.5, 150 mM NaCl, 1 mM EDTA, 0.05% NP-40, 1 mg/ml BSA, 1 ug/ml poly(I/C), 0.1% protease inhibitor cocktail, 2 mM DTT; room temperature, 3 h (competition 30 min); settings: protein: recombinant; tags: N-terminal His6-SUMO; hairpin with central bulge and apical loop, self-annealed
# T4 sequence: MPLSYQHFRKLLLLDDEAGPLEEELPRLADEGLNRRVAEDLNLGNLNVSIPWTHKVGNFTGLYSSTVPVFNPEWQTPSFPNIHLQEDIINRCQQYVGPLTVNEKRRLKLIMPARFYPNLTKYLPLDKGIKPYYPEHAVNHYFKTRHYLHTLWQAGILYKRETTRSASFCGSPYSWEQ
molecule,measurement,setting,value
NC(Cc1cc(O)c(O)cc1O)C(=O)O (racemic) [6‐hydroxy‐DL‐DOPA],IC50,[1],~ 6.6 µM
same,KD,[2],11 nM
CCCCCCCC/C=C\CCCCCCCC(=O)NCCc1ccc(O)c(O)c1 [N‐oleoyldopamine],IC50,[3],~410 nM
same,Kd,[4],72 nM
B1,binding result,[5]; hairpin,no binding
B2,binding result,[6],no binding
same,binding result,[5]; hairpin with central bulge and apical loop,binds
